pKi: −log10 of the molar value.
Legend:
[1] = biological target: Human norepinephrine transporter (NET) (Homo sapiens, UniProt P23975); experiment: Binding assay to human norepinephrine transporter (NET), [3H]-Nisoxetin; conditions: human NET enriched membranes, 5 nM [3H]-Nisoxetin
Description: Binding Assay to Human Norepinephrine Transporter (NET).
Human norepinephrine transporter (NET) enriched membranes (5 μg) were incubated with 5 nM of radiolabeled [3H]-Nisoxetin in assay buffer containing 50 mM Tris-HCl, 120 mM NaCl, 5 mM KCl, pH 7.4. NSB (non specific binding) was measured by adding 10 μM of desipramine. The binding of the test compound was measured at five different concentrations. After 60 min incubation at 4° C., binding reaction was terminated by filtering through Multiscreen GF/C (Millipore) presoaked in 0.5% polyethyleneimine in Vacuum Manifold Station, followed by 3 washes with ice-cold filtration buffer containing 50 mM Tris-HCl, 0.9% NaCl, pH 7.4. Filter plates were dried at 60° C. for 1 hour and 30 μl of scintillation cocktail were added to each well before radioactivity reading. Readings were performed in a Trilux 1450 Microbeta radioactive counter (Perkin Elmer).

[2] = biological target: Human α2δ-1 Subunit of Cav2.2 Calcium Channel (Homo sapiens, UniProt P54289); experiment: Human α2δ-1 subunit of Cav2.2 calcium channel assay, [3H]-Gabapentin binding; conditions: human α2δ-1 enriched membranes, 15 nM [3H]-Gabapentin
Chain of Human α2δ-1 Subunit of Cav2.2 Calcium Channel (P54289 25-1103): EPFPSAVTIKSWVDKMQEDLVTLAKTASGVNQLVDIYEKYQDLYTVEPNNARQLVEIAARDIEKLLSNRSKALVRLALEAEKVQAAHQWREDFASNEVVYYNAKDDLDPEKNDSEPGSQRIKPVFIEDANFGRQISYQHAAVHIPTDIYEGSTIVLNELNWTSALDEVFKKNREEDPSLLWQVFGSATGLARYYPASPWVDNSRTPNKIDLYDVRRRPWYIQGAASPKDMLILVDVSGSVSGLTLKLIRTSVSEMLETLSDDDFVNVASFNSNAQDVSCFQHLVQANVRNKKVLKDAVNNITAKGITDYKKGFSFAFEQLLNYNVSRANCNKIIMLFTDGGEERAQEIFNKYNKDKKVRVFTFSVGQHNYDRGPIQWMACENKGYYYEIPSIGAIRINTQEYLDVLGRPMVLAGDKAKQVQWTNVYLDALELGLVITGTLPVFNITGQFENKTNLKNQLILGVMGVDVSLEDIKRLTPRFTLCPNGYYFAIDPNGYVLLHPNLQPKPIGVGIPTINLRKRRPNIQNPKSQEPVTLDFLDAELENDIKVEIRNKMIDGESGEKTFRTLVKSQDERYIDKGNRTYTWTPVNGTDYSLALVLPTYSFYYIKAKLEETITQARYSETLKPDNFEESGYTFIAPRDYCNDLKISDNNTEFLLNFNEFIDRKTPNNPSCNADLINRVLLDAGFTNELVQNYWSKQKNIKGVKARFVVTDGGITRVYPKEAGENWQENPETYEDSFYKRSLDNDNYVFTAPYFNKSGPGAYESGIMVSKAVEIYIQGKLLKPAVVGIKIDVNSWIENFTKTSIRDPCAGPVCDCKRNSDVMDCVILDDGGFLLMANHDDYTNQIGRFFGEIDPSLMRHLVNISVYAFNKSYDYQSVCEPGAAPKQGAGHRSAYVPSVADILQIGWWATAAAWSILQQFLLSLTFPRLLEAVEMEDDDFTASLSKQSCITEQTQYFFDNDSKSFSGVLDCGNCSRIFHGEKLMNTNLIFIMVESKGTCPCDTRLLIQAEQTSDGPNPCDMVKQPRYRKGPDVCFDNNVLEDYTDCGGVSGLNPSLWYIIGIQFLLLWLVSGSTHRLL
Description: Human α2δ-1 Subunit of Cav2.2 Calcium Channel Assay
Human α2δ-1 enriched membranes (2.5 μg) were incubated with 15 nM of radiolabeled [3H]-Gabapentin in assay buffer containing Hepes-KOH 10 mM, pH 7.4. NSB (non specific binding) was measured by adding 10 μM pregabalin. The binding of the test compound was measured at five different concentrations. After 60 min incubation at 27° C., binding reaction was terminated by filtering through Multiscreen GF/C (Millipore) presoaked in 0.5% polyethyleneimine in Vacuum Manifold Station, followed by 3 washes with ice-cold filtration buffer containing 50 mM Tris-HCl, pH 7.4. Filter plates were dried at 60° C. for 1 hour and 30 μl of scintillation cocktail were added to each well before radioactivity reading. Readings were performed in a Trilux 1450 Microbeta radioactive counter (Perkin Elmer).

Chain of Human norepinephrine transporter (NET) (P23975 whole entry): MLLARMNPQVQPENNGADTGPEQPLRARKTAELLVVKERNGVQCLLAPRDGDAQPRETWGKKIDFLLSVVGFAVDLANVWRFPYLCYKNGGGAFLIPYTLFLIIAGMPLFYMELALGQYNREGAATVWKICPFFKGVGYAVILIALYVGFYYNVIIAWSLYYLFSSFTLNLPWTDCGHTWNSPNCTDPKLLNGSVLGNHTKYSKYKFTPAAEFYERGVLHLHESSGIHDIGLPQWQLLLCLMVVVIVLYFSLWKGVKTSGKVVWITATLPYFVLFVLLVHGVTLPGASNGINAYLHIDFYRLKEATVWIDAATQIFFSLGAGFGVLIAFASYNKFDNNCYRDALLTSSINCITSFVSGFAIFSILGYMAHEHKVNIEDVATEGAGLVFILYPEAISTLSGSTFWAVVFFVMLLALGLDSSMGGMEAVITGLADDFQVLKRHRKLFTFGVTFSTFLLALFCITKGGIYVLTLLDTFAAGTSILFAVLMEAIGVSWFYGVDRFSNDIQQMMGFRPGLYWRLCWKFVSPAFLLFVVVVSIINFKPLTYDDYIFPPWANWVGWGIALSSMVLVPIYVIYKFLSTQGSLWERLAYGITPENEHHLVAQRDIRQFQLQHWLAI

Work on Cc1nnc(N(C)C)c2nn(-c3cccc(O[C@H](c4ccccc4)[C@@H]4CNCCO4)c3)c(C)c12 (racemic) [Example 12, N,N,3,4-tetramethyl-2-(3-((R)-((S)-morpholin-2-yl)(phenyl)methoxy)phenyl)-2H-pyrazolo[3,4-d]pyridazin-7-amine] yielded a pKi [1] of 6.30 to 7.00 and a pKi [2] of 5.30 to 6.30.
Cc1nnc(N(C)C)c2nn(-c3cccc(O[C@@H](c4ccccc4)[C@@H]4CNCCO4)c3)c(C)c12 (racemic) [Example 13, N,N,3,4-tetramethyl-2-(3-((S)-((S)-morpholin-2-yl)(phenyl)methoxy)phenyl)-2H-pyrazolo[3,4-d]pyridazin-7-amine] showed a pKi [1] of 6.00 to 6.30 and a pKi [2] of 5.30 to 6.30.
With CNCCC(Oc1cccc(-n2nc3c(N(C)C)nnc(C)c3c2C)c1)c1ccccc1 (stereo not shown) [Example 1, N,N,3,4-Tetramethyl-2-(3-(3-(methylamino)-1-phenylpropoxy)phenyl)-2H-pyrazolo[3,4-d]pyridazin-7-amine] the pKi [1] was > 7.00 and the pKi [2] was 5.30 to 6.30.
Work on Cc1nnc(N(C)C)c2nn(-c3cccc(OC(CCN(C)C)c4ccccc4)c3)c(C)c12 (stereo not shown) [Example 2, 2-(3-(3-(dimethylamino)-1-phenylpropoxy)phenyl)-N,N,3,4-tetramethyl-2H-pyrazolo[3,4-d]pyridazin-7-amine] yielded a pKi [1] of 6.30 to 7.00 and a pKi [2] of 5.30 to 6.30.
CCNCCC(Oc1cccc(-n2nc3c(N(C)C)nnc(C)c3c2C)c1)c1ccccc1 (stereo not shown) [Example 3, 2-(3-(3-(ethylamino)-1-phenylpropoxy)phenyl)-N,N,3,4-tetramethyl-2H-pyrazolo[3,4-d]pyridazin-7-amine] showed a pKi [1] of 6.30 to 7.00 and a pKi [2] of 5.30 to 6.30.
In the case of Cc1nnc(N(C)C)c2nn(-c3cccc(OC(CCN)c4ccccc4)c3)c(C)c12 (stereo not shown) [Example 4, 2-(3-(3-amino-1-phenylpropoxy)phenyl)-N,N,3,4-tetramethyl-2H-pyrazolo[3,4-d]pyridazin-7-amine], the pKi [1] was 6.30 to 7.00 and the pKi [2] was 5.30 to 6.30.
For CNCCC(Oc1cccc(-n2nc3c(N(C)C)nnc(C)c3c2C)c1)c1cccc(F)c1 (stereo not shown) [Example 5, 2-(3-(1-(3-fluorophenyl)-3-(methylamino)propoxy)phenyl)-N,N,3,4-tetramethyl-2H-pyrazolo[3,4-d]pyridazin-7-amine], the pKi [1] was > 7.00 and the pKi [2] was 5.30 to 6.30.
For CNCCCC(Oc1cccc(-n2nc3c(N(C)C)nnc(C)c3c2C)c1)c1ccccc1 (stereo not shown) [Example 6, N,N,3,4-tetramethyl-2-(3-(4-(methylamino)-1-phenylbutoxy)phenyl)-2H-pyrazolo[3,4-d]pyridazin-7-amine], the pKi [1] was 6.30 to 7.00 and the pKi [2] was 5.30 to 6.30.
CNCCC(Oc1cccc(-n2nc3c(N(C)C)nnc(C)c3c2C)c1)c1ccc(C#N)cc1 (stereo not shown) [Example 7, 4-(1-(3-(7-(dimethylamino)-3,4-dimethyl-2H-pyrazolo[3,4-d]pyridazin-2-yl)phenoxy)-3-(methylamino)propyl)benzonitrile] gave a pKi [1] of 6.30 to 7.00 and a pKi [2] of 5.30 to 6.30.
CNCCC(Oc1cccc(-n2nc3c(N(C)C)nnc(C)c3c2C)c1)c1ccc(F)cc1 (stereo not shown) [Example 8, 2-(3-(1-(4-fluorophenyl)-3-(methylamino)propoxy)phenyl)-N,N,3,4-tetramethyl-2H-pyrazolo[3,4-d]pyridazin-7-amine] was tested, and the pKi [1] was > 7.00 and the pKi [2] was 5.30 to 6.30.
CNCCC(Oc1cccc(-n2nc3c(N(C)C)nnc(C)c3c2C)c1)c1ccccn1 (stereo not shown) [Example 9, N,N,3,4-tetramethyl-2-(3-(3-(methylamino)-1-(pyridin-2-yl)propoxy)phenyl)-2H-pyrazolo[3,4-d]pyridazin-7-amine] was tested, and the pKi [1] was 6.30 to 7.00 and the pKi [2] was 5.30 to 6.30.
With CNCCC(Oc1cccc(-n2nc3c(N(C)C)nnc(C)c3c2C)c1)c1ccncc1 (stereo not shown) [Example 10, N,N,3,4-tetramethyl-2-(3-(3-(methylamino)-1-(pyridin-4-yl)propoxy)phenyl)-2H-pyrazolo[3,4-d]pyridazin-7-amine] the pKi [1] was > 7.00 and the pKi [2] was 5.30 to 6.30.
With CNCCC(Oc1cccc(-n2nc3c(N(C)C)nnc(C)c3c2C)c1)c1cccc(C#N)c1 (stereo not shown) [Example 11, 3-(1-(3-(7-(dimethylamino)-3,4-dimethyl-2H-pyrazolo[3,4-d]pyridazin-2-yl)phenoxy)-3-(methylamino)propyl)benzonitrile] the pKi [1] was > 7.00 and the pKi [2] was 5.30 to 6.30.
Compound Cc1nnc(N(C)C)c2nn(-c3cccc(OCCC(N)c4ccccc4)c3)c(C)c12 (stereo not shown) [Example 14, 2-(3-(3-amino-3-phenylpropoxy)phenyl)-N,N,3,4-tetramethyl-2H-pyrazolo[3,4-d]pyridazin-7-amine] has a pKi [1] of 6.30 to 7.00 and a pKi [2] of 5.30 to 6.30.
For CNC(COc1cccc(-n2nc3c(N(C)C)nnc(C)c3c2C)c1)c1ccccc1 (stereo not shown) [Example 15, N,N,3,4-tetramethyl-2-(3-(2-(methylamino)-2-phenylethoxy)phenyl)-2H-pyrazolo[3,4-d]pyridazin-7-amine], the pKi [1] was > 7.00 and the pKi [2] was 5.30 to 6.30.
For Cc1nnc(N(C)C)c2nn(-c3cccc(OC4CNCc5ccccc54)c3)c(C)c12 (stereo not shown) [Example 16, N,N,3,4-tetramethyl-2-(3-((1,2,3,4-tetrahydroisoquinolin-4-yl)oxy)phenyl)-2H-pyrazolo[3,4-d]pyridazin-7-amine], the pKi [1] was ≤ 6.00 and the pKi [2] was 5.30 to 6.30.
CCNCCC(Oc1cccc(-n2nc3c(N(C)C)nnc(C)c3c2C)c1)c1cccc(F)c1 (stereo not shown) [Example 17, 2-(3-(3-(ethylamino)-1-(3-fluorophenyl)propoxy)phenyl)-N,N,3,4-tetramethyl-2H-pyrazolo[3,4-d]pyridazin-7-amine] was tested, and the pKi [1] was ≤ 6.00 and the pKi [2] was 5.30 to 6.30.
In the case of CNCCC(Oc1cccc(-n2nc3c(N(C)C)nnc(C)c3c2C)c1)c1cc(F)cc(F)c1 (stereo not shown) [Example 18, 2-(3-(1-(3,5-difluorophenyl)-3-(methylamino)propoxy)phenyl)-N,N,3,4-tetramethyl-2H-pyrazolo[3,4-d]pyridazin-7-amine], the pKi [1] was 6.30 to 7.00 and the pKi [2] was 5.30 to 6.30.
Compound Cc1nnc(N(C)C)c2nn(-c3cccc(OC(CCN)c4ccccc4F)c3)c(C)c12 (stereo not shown) [Example 19, 2-(3-(3-amino-1-(2-fluorophenyl)propoxy)phenyl)-N,N,3,4-tetramethyl-2H-pyrazolo[3,4-d]pyridazin-7-amine] has a pKi [1] of 6.30 to 7.00 and a pKi [2] of 5.30 to 6.30.
Cc1nnc(N(C)C)c2nn(-c3cccc(OC(CCN)c4ccc(F)cc4)c3)c(C)c12 (stereo not shown) [Example 20, 2-(3-(3-amino-1-(4-fluorophenyl)propoxy)phenyl)-N,N,3,4-tetramethyl-2H-pyrazolo[3,4-d]pyridazin-7-amine] was tested, and the pKi [1] was 6.30 to 7.00 and the pKi [2] was 5.30 to 6.30.
Cc1nnc(N(C)C)c2nn(-c3cccc(OC(CCN)c4cccc(F)c4)c3)c(C)c12 (stereo not shown) [Example 21, 2-(3-(3-amino-1-(3-fluorophenyl)propoxy)phenyl)-N,N,3,4-tetramethyl-2H-pyrazolo[3,4-d]pyridazin-7-amine] showed a pKi [1] of 6.30 to 7.00 and a pKi [2] of 5.30 to 6.30.
CNCCC(Oc1cccc(-n2nc3c(NC)nnc(C)c3c2C)c1)c1ccccc1F (stereo not shown) [Example 22, 2-(3-(1-(2-fluorophenyl)-3-(methylamino)propoxy)phenyl)-N,3,4-trimethyl-2H-pyrazolo[3,4-d]pyridazin-7-amine] was tested, and the pKi [1] was > 7.00 and the pKi [2] was 5.30 to 6.30.
With CNc1nnc(C)c2c(C)n(-c3cccc(OC(CCN)c4ccccc4F)c3)nc12 (stereo not shown) [Example 23, 2-(3-(3-amino-1-(2-fluorophenyl)propoxy)phenyl)-N,3,4-trimethyl-2H-pyrazolo[3,4-d]pyridazin-7-amine] the pKi [1] was 6.30 to 7.00 and the pKi [2] was 5.30 to 6.30.
In the case of CNc1nnc(C)c2c(C)n(-c3cccc(OC(CCN)c4ccccc4)c3)nc12 (stereo not shown) [Example 24, 2-(3-(3-amino-1-phenylpropoxy)phenyl)-N,3,4-trimethyl-2H-pyrazolo[3,4-d]pyridazin-7-amine], the pKi [1] was 6.00 to 6.30 and the pKi [2] was 5.30 to 6.30.
Work on CNCCC(Oc1cccc(-n2nc3c(NC)nnc(C)c3c2C)c1)c1ccccc1 (stereo not shown) [Example 25, N,3,4-trimethyl-2-(3-(3-(methylamino)-1-phenylpropoxy)phenyl)-2H-pyrazolo[3,4-d]pyridazin-7-amine] yielded a pKi [1] of 6.30 to 7.00 and a pKi [2] of 5.30 to 6.30.
Compound CNCCC(Oc1cccc(-n2nc3c(N)nnc(C)c3c2C)c1)c1ccccc1F (stereo not shown) [Example 26, 2-(3-(1-(2-fluorophenyl)-3-(methylamino)propoxy)phenyl)-3,4-dimethyl-2H-pyrazolo[3,4-d]pyridazin-7-amine] has a pKi [1] of 6.30 to 7.00 and a pKi [2] of 5.30 to 6.30.
For CNCCC(Oc1cccc(-n2nc3c(N)nnc(C)c3c2C)c1)c1ccccc1 (stereo not shown) [Example 27, 3,4-dimethyl-2-(3-(3-(methylamino)-1-phenylpropoxy)phenyl)-2H-pyrazolo[3,4-d]pyridazin-7-amine], the pKi [1] was > 7.00 and the pKi [2] was 5.30 to 6.30.
Cc1nnc(N)c2nn(-c3cccc(OC(CCN)c4ccccc4F)c3)c(C)c12 (stereo not shown) [Example 28, 2-(3-(3-amino-1-(2-fluorophenyl)propoxy)phenyl)-3,4-dimethyl-2H-pyrazolo[3,4-d]pyridazin-7-amine] showed a pKi [1] of 6.00 to 6.30 and a pKi [2] of 5.30 to 6.30.
With Cc1nnc(N(C)C)c2nn(-c3cccc(OCC4CCNCC4)c3)c(C)c12 [Example 29, N,N,3,4-tetramethyl-2-(3-(piperidin-4-ylmethoxy)phenyl)-2H-pyrazolo[3,4-d]pyridazin-7-amine] the pKi [1] was ≤ 6.00 and the pKi [2] was ≤ 5.30.

Reference: patent publication US20200190081A1, “META SUBSTITUTED PHENYLPYRAZOLO- AND PHENYLPYRROLO- PYRIDAZINE DERIVATIVES HAVING MULTIMODAL ACTIVITY AGAINST PAIN” (ESTEVE PHARMACEUTICALS, S.A., priority 2016, published 2020)
